Assay results reported in patent US8802635B2, “Antioxidant, anti-inflammatory, anti-radiation, metal chelating compounds and uses thereof” (Oneday—Biotech And Pharma Ltd., priority 2011, dated 2014).
Non-standard residues stand in square brackets, D forms with d. βAla = NCCC(=O)O

How the values were obtained:
[1] = test system: HaCaT cells; experiment: Hydrogen peroxide-induced HaCaT keratinocyte cytotoxicity (MTT); assay type: cell-based; conditions: 90 μM hydrogen peroxide 30 min; MTT after 72 hours
Description: All five peptides were examined in this Example, and their activity was compared to the known CB3 peptide. HaCaT cells were seeded in 96-well plate at a concentration of 10×10^4 cells/ml for 24 hours. Then cells were incubated with the peptides at the indicated concentrations for 2.5 hours followed by washing with PBS and incubation with 90 μM hydrogen peroxide (without peptide) for 30 minutes. Cells were washed with PBS and incubated with culture medium containing peptide for 72 hours. Cell viability was tested by MTT. The effect of the peptides on cell viability was performed similarly without hydrogen peroxide exposure.

[2] = test system: carnitine; experiment: Carnitine levels in mouse tissues; assay type: in vivo, mice; conditions: 250 mg/kg i.p. for 5 consecutive days
Description: Male ICR mice were injected i.p. with 250 mg/kg DY-65 for 5 consecutive days. Half an hour after the last injection lung, heart, skeletal muscle (femural), brain, liver, kidney and blood were removed, homogenized (100 mg tissue in 200 μl distilled water), centrifuged and filtrated through 30K Microcon® filter. Carnitine analysis was carried out by a commercial kit (BioVision, catalogue number K642-100). n=4 for each group.

[3] = test system: alanine aminotransferase (ALT) in plasma / liver necrosis; experiment: Concanavalin A-induced liver inflammation in C57BL/6 mice; assay type: in vivo
Description: Six groups of C57BL/6 female mice (7-8 weeks old) containing 6 mice in each group were injected i.p. with different peptide on days −3, −2, −1 at a dose of 50 mg/kg or with PBS alone. On day zero all the mice were injected i.v. with 250 μg/mouse of Con A and 45 min. later they were injected i.p. with 150 mg/kg of each peptide or PBS.
Eight hours after Con A injection mice were bled into heparinized tubes (approx. 150 ul of blood from each mouse) and the levels of alanine aminotransferase (ALT) was measured in the plasma.
One day later the mice were sacrificed and their livers were placed in 4% formalin and sent for pathological examination.
Next, peptide DY-66 was examined and compared to N-acetylcysteine (NAC), CB3 and CB4. The compounds were tested according to the procedure described above. ConA dose was 180 μg/mouse.
FIG. 8 presents the change in ALT levels (%) for each of the tested compounds compared to PBS treatment (i.e., the ratio between ALT levels in samples obtained from mice treated with a tested compound and ALT levels in samples obtained from PBS-treated mice)

[4] = test system: NF-κB; experiment: Nuclear translocation of NF-κB in lung, zymosan-induced inflammation; assay type: in vivo, mice; conditions: lung tissue, 24 hours after zymosan; i.p. dosing as Example 3; p<0.05
Description: Male BALB/c mice were randomly allocated into the following experimental groups:
The peptides were administered by an intraperitoneal (i.p.) route of administration as described in Example 3.
The peptides were formulated in D5W as described in Example 3. The vehicle control was D5W.
At 24 hours after administration of zymosan, animals were euthanized and assessed for inflammation by an NF-κB analysis of lung tissue.
Tissues were homogenized and nuclear extracts prepared via centrifugation. […]

[5] = test system: granulocytes at the peritoneal lavages; experiment: Ovalbumin-induced hypersensitivity: percentage of granulocytes in peritoneal lavage (FACS); assay type: in vivo, mice; conditions: 125 mg/kg; Mann-Whitney with Bonferroni correction, p<=0.0125
Description: Hypersensitivity was induced as described in Example 5. The mice were treated according to the above protocol with PBS alone (“PBS”, no OVA and no Alum), OVA (“OVA”), OVA+CB3 104 mg/kg, OVA+DY-66 83 mg/kg and OVA+DY-66 125 mg/kg. In all groups, 9 mice were used except for OVA+DY-66 83 mg/kg, where 10 mice were used.
At day 16 the animals were sacrificed, the peritoneum was washed with 4-5 ml of sterile PBS, centrifuged and the cells were re-suspended in sterile PBS containing FCS 2%.
Percentage of granulocytes at the peritoneal lavages were measured by the use of FACS machine analysis of all cells during 10 second flow, followed by a careful analysis of the FACS dot plots.

[6] = test system: ROS; experiment: ROS levels in C57Bl/6 mice after LPS injection; assay type: in vivo; conditions: 6 h after LPS
Description: C57BL/6 female mice (7-8 weeks old) were injected i.p. with the peptide or PBS on days −3, −2, −1 at a dose of 50 mg/kg or with PBS alone (6 mice in each group). On day zero all the mice were injected i.p. with 200 μg/mouse of LPS and 45 min. later they were injected i.p. with 150 mg/kg of the peptide. Another group of 3 mice served as normal untreated mice. […]

[7] = Metal chelation: ferric ion binding by mass spectra (ESI); conditions: 0.83 mM peptide, 1.66 mM FeCL3, 1 hour room temperature
Description: All five peptides were examined for their ability to bind copper and ferric ions. 0.83 mM of each peptide were mixed with 1.66 mM of either FeCL3 or CuSO4. The mixtures were incubated for 1 hour at room temperature and further kept at ° 4 C until analysis. Samples were analyzed by mass spectra (ESI).

[8] = Con A 250 μg/mouse i.v., 8 h after Con A

Substance | protection of cell viability after hydrogen peroxide exposure (in words) [1] | increase in the level of carnitine in other tissues [2] | increase in the level of carnitine in some tissues ([2]; significant elevation) | mice found dead ([3]; 24 hours post Con A 250 μg, 6 mice in each group) | inhibition of the increase in nuclear p65 translocation [4] | difference in percentage of granulocytes (medians) between OVA and OVA+peptide [5] | ROS levels in platelets and RBCs compared to PBS-treated mice (in words) ([6]; 50 mg/kg i.p. days -3,-2,-1 and 150 mg/kg 45 min after LPS) | ROS level in platelets, % of the level in PBS-treated mice ([6]; p<0.005) | ROS level in RBCs, % of the level in PBS-treated mice ([6]; p<0.05) | necrotic area in liver, histo-pathological report (in words) ([3]; Con A 250 μg/mouse i.v.) | reduction of ALT average compared to PBS-treated mice [3, 8] | reduction of ALT median compared to PBS-treated mice [3, 8] | reduction of ALT average compared to PBS-treated mice ([3]; ConA dose 180 μg/mouse) | reduction of ALT median compared to PBS-treated mice ([3]; ConA dose 180 μg/mouse) | FeCl binding (in words) [7]
N-acetyl-Cys-Lys-Met-Cys-NH2 (Ac-CKMC-NH2; cysteine pairing not given here) [DY-65] | slightly elevated cell viability | about 70% | about 150% | 1 |  |  |  |  |  |  |  |  |  |  | 
N-acetyl-Cys-βAla-His-Cys-NH2 (Ac-C[βAla]HC-NH2; cysteine pairing not given here) [DY-66] | slightly elevated cell viability |  |  |  | ca. 80% | highly significant | significant reduction in ROS levels | approximately 55% | approximately 75% | significant (p=0.011) decrease in necrotic area | 69% | 75% | 71% | 89% | binding was observed
